# Reference: PubChem BioAssay (NCI)
# Where “and” joins values, the source holds several entries; their conditions need not be identical. Identical values can stand only once.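 In this assay, cells in 96-well plates receive the compound at five concentrations for 48 hours. Endpoints are linearly interpolated between the surrounding concentrations. GI50: concentration for 50% inhibition of growth. Definition used: TGI = concentration required for complete inhibition of growth.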
# Experiments:
# Assay in all cases: growth of human tumour cells (NCI), 48 h
# U251 CNS = test system: U251 CNS
# XF 498 CNS = test system: XF 498 CNS
# OVCAR-4 ovarian = test system: OVCAR-4 ovarian
# RXF 393 renal = test system: RXF 393 renal
# RPMI-8226 leukemia = test system: RPMI-8226 leukemia
# IGROV1 ovarian = test system: IGROV1 ovarian
# CAKI-1 renal = test system: CAKI-1 renal
# 786-0 renal = test system: 786-0 renal
# M19-MEL melanoma = test system: M19-MEL melanoma
# HCC-2998 colon = test system: HCC-2998 colon
Structure (SMILES),TGI (U251 CNS) [µM],TGI (XF 498 CNS) [µM],TGI (OVCAR-4 ovarian),TGI (RXF 393 renal) [µM],TGI (RPMI-8226 leukemia) [µM],TGI (IGROV1 ovarian) [µM],TGI (CAKI-1 renal),TGI (786-0 renal),TGI (M19-MEL melanoma),TGI (HCC-2998 colon) [µM],GI50 (U251 CNS),GI50 (OVCAR-4 ovarian),GI50 (RXF 393 renal),GI50 (786-0 renal)
CCCCCCCCC(=O)CCCCCCCCC(=O)O,> 100,> 100,> 100 µM,67.1,51.2,36.4,> 100 µM,64.3 µM,> 100 µM,,,,,
CC12Oc3ccc4ccccc4c3C1c1c(ccc3ccccc13)O2 (configuration not stated),> 100,> 100,> 100 µM,> 100,,> 100,> 100 µM,> 100 µM,> 100 µM,,,,,
CC(=O)c1cc2c3c(c1)c1cc4c(cc1c(=O)n3CC2)OCO4,> 100,> 100,> 100 µM,> 100,> 100,> 100,91.3 µM,> 100 µM,> 100 µM,> 100,,,,
CC1C(=O)CCC1C(Sc1ccccc1)(Sc1ccccc1)Sc1ccccc1 (configuration not stated),> 100,80.9,> 100 µM,51.3,40.6,78.4,> 100 µM,> 100 µM,> 100 µM,> 100,,,,
Nc1ccccc1S(=O)c1ccccc1 (configuration not stated),> 100,> 100,> 100 µM,> 100,> 100,> 100,> 1 µM,> 100 µM,> 100 µM,> 100,,,,
CCOC(=O)NC(=O)c1cn(CCCCCCCCCCC(=O)N2CCN(CCn3cc(C(=O)NC(=O)OCC)c(=O)[nH]c3=O)CC2)c(=O)[nH]c1=O,> 100,> 100,> 100 µM,> 100,> 100,> 100,> 100 µM,> 100 µM,> 100 µM,> 100,,,,
CCOC(=O)/C(=C/c1cc(OC)ccc1OC)CC(=O)O,> 100,> 56.7,> 100 µM,> 100,> 31.6,> 100,> 100 µM,> 31.6 µM,> 100 µM,> 31.6,,,,
Cn1c(O)c(C=N)c(=O)n(C)c1=O,> 100,> 100,> 100 µM,> 100,> 100,,> 100 µM,> 100 µM,> 100 µM,> 100,,,,
COC(=O)C(=C\Sc1ccccc1)/C=C/C(=O)OC(C)(C)C,27.7,28.3,28.6 µM,7.7,8.48,27.5,12.1 µM,10.9 µM,23.9 µM,21.6,,,,
CCCCCCCCCCCCCCCCc1c(C(=O)OC)[nH]c(=S)[nH]c1=O,> 50,> 50,> 50 µM,> 50,> 50,> 50,> 50 µM,> 50 µM,> 50 µM,> 50,,,,
O=C1C(CN(Cc2ccccc2)Cc2ccccc2)CCCC1CN(Cc1ccccc1)Cc1ccccc1 (configuration not stated),> 100,28.4,36.6 µM and > 100 µM,> 100,> 100,> 100,11.5 µM and > 100 µM,32.9 µM and > 100 µM,18.7 µM and > 100 µM,> 100,41.7 µM and > 100 µM,20 µM and > 79.8 µM,20.1 µM and > 100 µM,16.8 µM and 55.1 µM
Cc1cc(=O)[nH]c(CNC(=O)c2cccc3ccccc23)n1,> 100,> 100,> 100 µM,> 100,,> 100,> 100 µM,> 100 µM,> 100 µM,> 100,,,,
COC(=O)C1C(=O)O[C@@H](c2ccc(OC)cc2)C1C(=O)OC (some centres not stated),> 100,> 100,> 100 µM,> 100,> 100,> 100,> 100 µM,> 100 µM,> 100 µM,> 100,,,,
Cc1cc(NC(=O)NC(=O)c2ccccc2[N+](=O)[O-])ccc1Oc1ncc(Cl)cn1,4.42,17.9,31.3 µM,0.147,> 100,98.9,,26.4 µM,> 100 µM,0.6,,,,
O=[N+]([O-])c1ccccc1S(=O)(=O)c1ccccc1[N+](=O)[O-],66.5,72.4,> 100 µM,83.8,> 100,> 100,> 100 µM,> 100 µM,> 100 µM,> 100,,,,
COc1ccccc1/C=C1\CCC(CN(C)C)C1=O (configuration not stated),26.9,32.6,19.6 µM,9.13,21.1,32.7,12 µM,5.08 µM,7.46 µM,14.2,,,,
CCC1(O)C(=O)OCc2c1cc1n(c2=O)Cc2c-1nc1ccccc1c2OC (configuration not stated),0.0801,,2.55 µM,0.11,0.511,5.65,1.8 µM,0.0249 µM,1.89 µM,5.77,,,,
